Experiments:
[1] = system: tumor cells with normal P53 function (H1299-P53 and A549-NC); test: CCK8 cell activity, tumor cells with normal P53 function; assay type: cell-based
Description: (§1) First, a lentivirus kit (purchased from Shanghai Genepharma) was used to construct a P53 stably overexpressing H1299 cell line (H1299-P53) and a P53 stably knockdown A549 cell line […]. The P53 sequence targeted by the shRNA used to knock down P53 in A549 cells was 5′-[…]-3′ (SEQ ID NO: 4). Virus transfection and the construction of stable cell lines were performed according to the kit instructions. […] After treatment for 12 hours, the drug-containing medium was replaced with a normal medium and the cells were further cultured for 72 hours. Cell activity was measured according to the instructions of the CCK8 kit (Dojindo, Tokyo, Japan).
In this example, another chemical drug, Doxorubicin, was used to verify that Endostatin can enhance the sensitivity of P53-deficient tumor cells to chemotherapy. Operation process was the same as in Example 5.

H1299-P53 tumor = test: Subcutaneous tumor growth in nude mice, H1299-P53; assay type: in vivo; settings: H1299-P53, Day 19; compared with control group; Endostatin 20 mg/kg i.p. once a day, Etoposide 2 mg/kg i.p. once every two days
Description: (§2) Tumor-bearing nude mice were randomly divided into four groups with 6 to 8 animals for each group, and different drug treatments were performed. […] Tumor volume was measured every other day. 2 to 4 weeks after administration, the mice were sacrificed and the tumor tissue was removed for further use.

H1299 mouse tumor model = test: Survival of H1299 tumor-bearing mice; assay type: in vivo; settings: administration as in Example 12, stopped after 25 days
Description: as §2
(§3) H1299 and A549 cells were cultured in a vigorous and proliferative state, and tumor collection, grouping, and administration methods were the same as in Example 12. The administration was stopped after 25 days, and the survival of the mice was recorded daily, and the survival curve of the mice was plotted.

[2] = system: tumor cells with normal P53 function (H1299-P53, A549-NC); test: PI staining apoptosis by flow cytometry, tumor cells with normal P53 function; assay type: cell-based; settings: Etoposide 1 μM, 16 h
Description: The apoptotic cells and adherent cells floating in the culture medium were collected, and the cells were suspended in 500 μl PBS containing 0.05 mg/ml propidium iodide (PI), stained for 15 min at room temperature in dark, and detected by flow cytometry (BD FACS Calibur). PI-positive cells represent apoptotic cells.

[3] = system: A549 tumor-bearing mice (normal P53 function); test: Survival of A549 tumor-bearing mice; assay type: in vivo; settings: A549, normal P53 function (FIG. 13B); compared with control group; administration as in Example 12, stopped after 25 days
Description: as §2, §3

A549-NC tumor = test: Subcutaneous tumor growth in nude mice, A549-NC; assay type: in vivo; settings: Day 27, compared with control group, Endostatin 20 mg/kg i.p. once a day, Etoposide 2 mg/kg i.p. once every two days
Description: as §2

[4] = system: PCNA and DNA-PKcs protein in H1299-P53 and A549-NC tumor tissues; test: Immunofluorescence of PCNA and DNA-PKcs in tumor tissue, mouse tumor model with normal P53 function; assay type: in vivo, nude mice; settings: H1299-P53 and A549-NC tumors of Example 12; quantitative immunofluorescence
Description: as §2
(§4) The tumor tissue removed in Example 12 was fixed and embedded, and then sectioned. PCNA (a marker molecule indicating the vigorous proliferation status of tumor cells) and DNA-PKcs protein in tumor tissues were stained by immunofluorescence technique, and were observed and imaged with a laser confocal microscope (Nikon A1). The experimental results are shown in FIG. 14A-14D, in which blue represents the nucleus of DAPI-stained cells, green represents the DNA-PKcs protein, and red represents the PCNA protein. Taking the H1299-NC tumor tissue shown in FIG. 14A as an example, the first column on the left represents DNA-PKcs single staining, and the green area represents the DNA-PKcs protein expression level. The second column on the left represents the results of DNA-PKcs (green) merged with nucleus (blue), and the overlapping part is shown in cyan. The third column on the left represents PCNA single staining, and the red area represents the PCNA protein expression level, indicating the strength of tumor cell proliferation. […]

[5] = system: mRNA levels of BAX, NOXA, PUMA, and P21; test: Real-time PCR of pro-apoptotic molecules, tumor cells with normal P53 function; assay type: cell-based; settings: H1299-P53, A549-NC; Etoposide 1 μM, 16 h
Description: After the cells were treated as described above, the total RNA of the cells was extracted, and the relative changes in mRNA levels of BAX, NOXA, PUMA, and P21 in the cells were detected by real-time PCR.

[6] = system: tumor cells with normal P53 function (H1299-P53, A549-NC); test: Cell colony formation, tumor cells with normal P53 function; assay type: cell-based; settings: Etoposide 1 μM, 16 h; colonies after 14 days
Description: After the treatment, the cells were digested with trypsin, counted, and re-plated in a six-well plate with 1000 cells per well. The cells were cultured in a normal medium for 14 days to form cell colonies.

A549-shP53 tumor = test: Subcutaneous tumor growth in nude mice, A549-shP53; assay type: in vivo; settings: A549-shP53, Day 27; compared with control group; Endostatin 20 mg/kg i.p. once a day, Etoposide 2 mg/kg i.p. once every two days
Description: as §2

[7] = system: PCNA and DNA-PKcs protein in H1299-NC and A549-shP53 tumor tissues; test: Immunofluorescence of PCNA and DNA-PKcs in tumor tissue, P53-deficient mouse tumor model; assay type: in vivo, nude mice; settings: H1299-NC and A549-shP53 tumors of Example 12; quantitative immunofluorescence
Description: as §2, §4

[8] = system: DNA-PKcs signaling pathway; test: Immunoblotting of DNA-PKcs signaling pathway activation induced by chemotherapeutic agent; assay type: cell-based; settings: H1299 and A549 cells; for Level of the DNA-PKcs signaling pathway (p-DNA-PKcs (S2056), p-AKT (S473), p-P53 (S15)): single agent 1 h (Etoposide 10 μM, Endostatin 10 μg/ml, NU7026 10 μM); for Activation of the DNA-PKcs signaling pathway by Etoposide (p-DNA-PKcs (S2056), p-AKT (S473)): 10 μg/ml added 1 h before Etoposide 10 μM
Description: Tumor cells (including non-small cell lung cancer H1299 and A549 cells) were divided into six treatment groups.
Tumor cells (including H1299 and A549 cells) were divided into six treatment groups.

H1299-NC tumor = test: Subcutaneous tumor growth in nude mice, H1299-NC; assay type: in vivo; settings: Day 19, compared with control group, Endostatin 20 mg/kg i.p. once a day, Etoposide 2 mg/kg i.p. once every two days
Description: as §2

H1299 and A549 cells = test: Annexin V-FITC/PI apoptosis by flow cytometry with DNA-PKcs siRNA knockdown; assay type: cell-based; settings: A549 (P53 wild-type) versus H1299 (P53-deficient); 1 μM versus 10 μM, 16 h
Description: In this example, tumor cells (including H1299 and A549 cells) were divided into eight treatment groups. In the first four groups, cells were transfected with control siRNA, and in the last four groups, cells were transfected with siRNA that specifically knocked down DNA-PKcs. The siRNA sequence of DNA-PKcs is: forward 5′-[…]-3′ (SEQ ID NO: 5), reverse 5′-[…]-3′ (SEQ ID NO: 6). The siRNA transfection method was performed according to the instructions of the transfection reagent Lipofectamine 2000. Then, in the eight groups, the cells were treated with drugs. […] Cells were collected and operations were performed according to the instructions of Annexin V-FITC/PI Apoptosis Detection Kit. Apoptosis was detected by flow cytometry. A549 cells were P53 wild-type cells, and H1299 cells were P53-deficient cells.

A375 cells = test: CCK8 cell activity, melanoma A375; assay type: cell-based; settings: A375 (P53 wild type); Etoposide; operation process as in Example 5
Description: as §1
This example used two cell lines of another tumor type (melanoma), the MDA-MB-435S (P53 mutant) and A375 (P53 wild type) cell lines, to verify the regulatory function of Endostatin on the chemotherapeutic sensitivity of other types of tumor cells with different P53 status. Operation process was the same as in Example 5.

[9] = system: DNA-PKcs, PARP, γH2AX and Caspase-3 signaling pathways; test: Immunoblotting of DNA damage and apoptotic pathway, P53-deficient tumor cells; assay type: cell-based; settings: H1299-NC, A549-shP53; Endostatin 10 μg/ml, Etoposide 10 μM 16 h, z-DEVD-fmk 10 μM; Endostatin and z-DEVD-fmk added 1 h before Etoposide
Description: In this example, tumor cells (H1299-NC, H1299-P53, A549-NC, A549-shP53) were divided into six treatment groups.

COc1cccc2c1C(=O)c1c(O)c3c(c(O)c1C2=O)C[C@@](O)(C(=O)CO)C[C@@H]3O[C@H]1C[C@H](N)[C@H](O)[C@H](C)O1 [Doxorubicin, reference compound]
Activity of tumor cells ([1]; Doxorubicin, operation process as in Example 5): could significantly inhibit the activity of tumor cells

COc1cc([C@@H]2c3cc4c(cc3[C@@H](O[C@@H]3O[C@@H]5CO[C@@H](C)O[C@H]5[C@H](O)[C@H]3O)[C@H]3COC(=O)[C@H]23)OCO4)cc(OC)c1O [Etoposide, reference compound]
tumor suppression rate (H1299-P53 tumor): 30.0%
median survival time longer than that of the control group (H1299 mouse tumor model): 30.3%
Apoptosis of tumor cells (PI-positive cells) [2]: could significantly promote the apoptosis of tumor cells
Survival time of mice [3]: could prolong the survival time of the mice to some extent
tumor suppression rate (A549-NC tumor): 34.0%
Tumor cell proliferation (PCNA) and protein level of DNA-PKcs in tumor tissue [4]: could reduce the proliferation of tumor cells and reduce the protein level of DNA-PKcs
mRNA levels of pro-apoptotic molecules BAX, NOXA, PUMA, P21 [5]: could significantly up-regulate the above pro-apoptotic molecules
Colony-forming ability of tumor cells [6]: could significantly inhibit the colony-forming ability of tumor cells
tumor suppression rate (A549-shP53 tumor): 39.3%
Tumor cell proliferation (PCNA) and protein level of DNA-PKcs in tumor tissue [7]: can attenuate tumor cell proliferation to a certain extent and reduce the protein level of DNA-PKcs
Level of the DNA-PKcs signaling pathway (p-DNA-PKcs (S2056), p-AKT (S473)) ([8]; Example 15, Etoposide 10 μM, 1 h, compared with control group): activated the level of the DNA-PKcs signaling pathway in H1299 and A549 cells
Level of the DNA-PKcs signaling pathway (p-DNA-PKcs (S2056), p-AKT (S473), p-P53 (S15)) ([8]; compared with control group): activated the level of the DNA-PKcs signaling pathway
Activity of tumor cells ([1]; Etoposide 0, 0.1, 1, 10 μM, 12 hours treatment, 72 hours further culture): could significantly inhibit the activity of tumor cells
tumor suppression rate (H1299-NC tumor): 28.0%
Sensitivity of cells to the chemotherapeutic agent (apoptosis) (H1299 and A549 cells): A549 cells were more sensitive to the chemotherapeutic agent
Activity of tumor cells (A375 cells): could significantly inhibit the activity of tumor cells

O=c1cc(N2CCOCC2)oc2c1ccc1ccccc12 [NU7026, reference compound]
Level of the DNA-PKcs signaling pathway (p-DNA-PKcs (S2056), p-AKT (S473), p-P53 (S15)) ([8]; compared with control group): did not affect the level of the DNA-PKcs signaling pathway

z-DEVD-fmk [reference compound]
DNA-PKcs, PARP, γH2AX and Caspase-3 signaling pathway levels [9]: could reverse the synergistic effect of Endostatin and Etoposide to some extent

B1: ZBP-Endostatin: endostatin variant obtained by adding 9 additional amino acids (MGGSHHHHH) to the N-terminus of natural human endostatin, SEQ ID NO: 3 (protein)
chain: MGGSHHHHHHSHRDFQPVLHLVALNSPLSGGMRGIRGADFQCFQQARAVGLAGTFRAFLSSRLQDLYSIVRRADRAAVPIVNLKDELLFPSWEALFSGSEGPLKPGARIFSFDGKDVLRHPTWPQKSVWHGSDPNGRRLTESYCETWRTEAPSATGQASSLLGGRLLGQSAASCHHAYIVLCIENSFMTASK
modifications: The amino acid sequence of ZBP-Endostatin
Activation of the DNA-PKcs signaling pathway by Etoposide (p-DNA-PKcs (S2056), p-AKT (S473)) ([8]; Example 15, 1 h): inhibited the activation of the DNA-PKcs signaling pathway by Etoposide

B2: PEG-Endostatin: natural human endostatin modified with 20 kDa mPEG-ALD at the N-terminal α-amino group (conjugate)
chain: MHSHRDFQPVLHLVALNSPLSGGMRGIRGADFQCFQQARAVGLAGTFRAFLSSRLQDLYSIVRRADRAAVPIVNLKDELLFPSWEALFSGSEGPLKPGARIFSFDGKDVLRHPTWPQKSVWHGSDPNGRRLTESYCETWRTEAPSATGQASSLLGGRLLGQSAASCHHAYIVLCIENSFMTASK
Activation of the DNA-PKcs signaling pathway by Etoposide (p-DNA-PKcs (S2056), p-AKT (S473)) ([8]; Example 15, 1 h): inhibited the activation of the DNA-PKcs signaling pathway by Etoposide
